{"source": "patent US20200222497A1", "about": "“USE OF COMPOSITAE-TYPE CYCLIC PEPTIDE COMPOUND AS CGAS-STING SIGNALLING PATHWAY INHIBITOR” (CHINA PHARMACEUTICAL UNIVERSITY, priority 2017, published 2020)", "test_system": "HSV-1 induced IFNβ protein in mouse serum", "experiment": "IFNβ protein in serum of HSV-1 infected mice (ELISA)", "assay_type": "in vivo", "details": "wild mouse, compound by tail vein injection three times, HSV-1 by tail vein, serum collected in 6 hours, FIG. 3", "text": "Influence of the compositae type cyclopeptide compound Astin C (3) prepared in example 1 on expression of IFNβ protein in HSV-1 induced mouse serum.\nThe experimental principle: Expression of the IFNβ protein in the body is a mark event of innate immunity resisting infection reaction, the expressed IFNβ can activate the signal transduction channel of the interferon receptor (IFNR) to induce expression of cell factors and inflammatory factors such as interferon stimulated genes, and finally, the invading pathogenic microorganisms are eliminated by recruiting NK cells or further activating molecular mechanisms such as adaptive immune response. Therefore, after the DNA virus HSV-1 infects a mouse, the activating condition of the innate anti-infection immune response of the body can be reflected by detecting the expression quantity of IFN-β of mouse serum, so that influence of the compound on the innate anti-infection immune reaction of the body is evaluated.\nThe experimental method: (1) Establishment of an HSV-1 infected mouse model: A 6-8 week old wild mouse was taken; 100 μL of HSV-1, the titer of which is 1×10^7, was injected into a mouse body by way of tail vein injection; and serum was collected in 6 hours for a follow-up experiment. […]", "data": [{"compound": "CCC1NC(=O)C2C(Cl)C(Cl)CN2C(=O)C(CC)NC(=O)CC(c2ccccc2)NC(=O)C(CO)NC1=O", "note": "(stereo not shown) [Astin C]", "values": [{"measurement": "HSV-1 induced IFNβ content in the mouse serum", "result": "reduce the HSV-1 induced IFNβ content in the mouse serum obviously"}]}]}
